The values below come from patent US20230381321A1, “CAMPTOTHECIN CONJUGATES” (priority 2022, published 2023).

Like-named read-outs stand apart in the source and are kept apart here.

Holding throughout (format): cell-based
Assay [1] has as its system acute myeloid leukemia cells (MOLM-13). Briefly: In vitro potency (CellTiter-Glo, 96 h) on MOLM-13. As to conditions: Homo sapiens, MOLM-13, 96 h, read-out: MOLM-13 IC50. As to the method:
(§1) In vitro potency was assessed on multiple cancer cell lines. All cell lines were authenticated by STR profiling at IDEXX Bioresearch and cultured for no more than 2 months after resuscitation. Cells cultured in log-phase growth were seeded for 24 hours in 96-well plates containing […] RPMI 1640 supplemented with 20% FBS. Serial dilutions of antibody-drug conjugates in cell culture media were prepared at 4x working concentrations, and 50 μL of each dilution was added to the 96-well plates. Following addition of test articles, cells were incubated with test articles for 4 days at […]. After 96 hours, growth inhibition was assessed by CellTiterGlo® (Promega, Madison, WI) and luminescence was measured on a plate reader.
(§2) Cell viability was determined by CellTiter-Glo staining after 96h exposure to ADC. ND=Not Determined. In the following tables, “Ex_” refers to a drug linker number. For example, “Ag4-Ex_4a” refers to a conjugate of an Ag4 antibody with drug linker 4a.
On the technique in general: ATP-based viability assays read luminescence as a measure of living cells.

Assay [2] concerns non-small-cell lung cancer cells (Calu1). Description: In vitro potency (CellTiter-Glo, 96 h) on Calu1. As to conditions: Homo sapiens, Calu-1, 96 h, read-out: Calu1 IC50. As to the method:
as §1, §2

Assay [3] relates to Hodgkin's lymphoma cells (L540cy). Briefly: In vitro potency (CellTiter-Glo, 96 h) on L540cy. As to conditions: L540cy, 96 h, read-out: L540cy IC50. As to the method: as §1, §2
Assay [4] deals with anaplastic large cell lymphoma cells (Karpas299). Description: In vitro potency (CellTiter-Glo, 96 h) on Karpas299. Conditions: Homo sapiens, KARPAS-299, 96 h, read-out: Karpas299 IC50. As to the method: as §1, §2
Assay [5] can be described thus: In vitro potency (CellTiter-Glo, 96 h) on Ls174T. As to conditions: Homo sapiens, LS174T, read-out: Ls174T IC50. As to the method: as §1, §2
Assay [6] relates to renal carcinoma cells (786-O). Briefly: In vitro potency (CellTiter-Glo, 96 h) on 786-O. Conditions: Homo sapiens, 786-0, 96 h, read-out: 786-O IC50. As to the method: as §1, §2
For assay [7], the system named is breast cancer cells (MDA-MB-231). Briefly: In vitro potency (CellTiter-Glo, 96 h) on MDA-MB-231. Conditions: Homo sapiens, MDA-MB-231, 96 h, read-out: MDAMB 231 IC50. As to the method: as §1, §2
Assay [8] concerns B-lymphocyte cancer cells (SU-DHL4). Briefly: In vitro potency (CellTiter-Glo, 96 h) on SU-DHL4. Conditions: Homo sapiens, SU-DHL-4, 96 h, read-out: SU-DHL-4 IC50. As to the method: as §1, §2
Assay [9] has as its system anaplastic large cell lymphoma cells (DELBVR). Description: In vitro potency (CellTiter-Glo, 96 h) on DELBVR. As to conditions: 96 h, read-out: DELBVR IC50. As to the method: as §1, §2
In the next assay the test system is melanoma cells (A2058). Briefly: In vitro potency (CellTiter-Glo, 96 h) on A2058. Conditions: Homo sapiens, A2058, 96 h, read-out: A2058 IC50. As to the method:
as §1, §2

For assay [10], the system named is anaplastic large cell lymphoma cells (DEL). Description: In vitro potency (CellTiter-Glo, 96 h) on DEL. As to conditions: 96 h, read-out: DEL IC50. As to the method: as §1, §2
Assay [11] concerns pancreatic cancer cells (BxPC3). Description: In vitro potency (CellTiter-Glo, 96 h) on BxPC3. As to conditions: Homo sapiens, BXPC-3, 96 h, read-out: BxPC3 IC50. As to the method:
as §1, §2

[12] abbreviates: CPT free drugs, CellTiter-Glo after 96 h exposure.

In the case of `CC[C@@]1(O)C(=O)OCc2c1cc1n(c2=O)Cc2c-1nc1cc3c(cc1c2CNCCOC)OCO3` [Compound 7ag], the IC50 – broadly, the concentration needed to halve the response being measured – worked out at 2 nM in assay [1]; 6 nM in assay [2]; 0.9 nM in [3]; 1 nM in [4]; 3 nM in assay [5] (96 h); 0.9 nM in assay [6]. In addition, the IC50 in [7] is 9 nM; in assay [8] it was 0.8 nM; in assay [9], 0.3 nM; with melanoma cells (A2058), 0.6 nM; in assay [10], 0.3 nM.

Take `CC[C@@]1(O)C(=O)OCc2c1cc1n(c2=O)Cc2c-1nc1cc(F)c(C)c(-c3ccoc3)c1c2CN` [Compound 6p]: the IC50 in [1] (setting [12]) came out at 3 nM; in [2] (setting [12]) it was 8 nM; in [3] (setting [12]) it was 2 nM; in [4] (setting [12]) it was 3 nM; in assay [5] (setting [12]), 5 nM; in [7] (setting [12]), 10 nM. Also, the half-inhibitory concentration (IC50) amounted to 1 nM in assay [8] (setting [12]), 2 nM in assay [9] (setting [12]), 2 nM in the assay with melanoma cells (A2058) (setting [12]) and 0.9 nM in assay [10] (setting [12]).

In the case of `CC[C@@]1(O)C(=O)OCc2c1cc1n(c2=O)Cc2c-1nc1cc(F)c(C)c(-c3cccs3)c1c2CN` [Compound 6n], the IC50 amounted to 30 nM in [1] (setting [12]); 56 nM in assay [2] (setting [12]); 17 nM in assay [3] (setting [12]); 24 nM in assay [4] (setting [12]); 47 nM in assay [5] (setting [12]); 70 nM in [7] (setting [12]). Moreover, the IC50 stood at 13 nM in [8] (setting [12]), 7 nM in [9] (setting [12]), 16 nM in the assay with melanoma cells (A2058) (setting [12]) and 6 nM in assay [10] (setting [12]).

Turning to `CC[C@@]1(O)C(=O)OCc2c1cc1n(c2=O)Cc2c-1nc1cc3c(cc1c2CNC1CCOC1)OCO3` (stereo partly drawn) [Compound 7ah], the IC50 amounted to 0.9 nM in [1]; 10 nM in assay [2]; 0.8 nM in assay [3]; 1 nM in assay [4]; 2 nM in [5] (96 h); 0.8 nM in assay [6]. In addition, the half-inhibitory concentration (IC50) in assay [7] was 6 nM; in assay [8], 0.5 nM; in [9], 0.2 nM; in the assay with melanoma cells (A2058) it was 0.5 nM; in [10], 0.2 nM.

`CC[C@@]1(O)C(=O)OCc2c1cc1n(c2=O)Cc2c-1nc1cc3c(cc1c2CNC(=O)CO)CCO3` [Compound 15c, (S)-N-((12-ethyl-12-hydroxy-8,11-dioxo-2,3,6,9,11,12-hexahydro-8H-furo [3,2 g]pyrano[3′,4′:6,7]indolizino[1,2-b]quinolin-5-yl)methyl)-2-hydroxyacetamide]: the 50% inhibitory concentration (IC50) in assay [1] (setting [12]) was 18 nM; in [2] (setting [12]), 184 nM; in assay [3] (setting [12]), 10 nM; in assay [4] (setting [12]) it was 22 nM; in [5] (setting [12]), over 1000 nM; in assay [6] (setting [12]), 22 nM. For the same compound, the IC50 was 69 nM in assay [7] (setting [12]); 3 nM in assay [8] (setting [12]); 3 nM in [9] (setting [12]); 6 nM in the assay with melanoma cells (A2058) (setting [12]); 1 nM in assay [10] (setting [12]).

Turning to `CC[C@@]1(O)C(=O)OCc2c1cc1n(c2=O)Cc2c-1nc1cc(F)c(C)c(-c3ccc(CO)s3)c1c2CN` [Compound 6e], the IC50 in [2] was determined as 155 nM.

Consider `CC[C@@]1(O)C(=O)OCc2c1cc1n(c2=O)Cc2c-1nc1cc(F)c(SC)cc1c2CN` [Compound 2at], for which the IC50 in assay [1] (setting [12]) is 264 nM; in [11] (setting [12]), 84 nM; in assay [3] (setting [12]) it was 4 nM; in assay [4] (setting [12]) it was 38 nM; in assay [5] (setting [12]), 30 nM; in assay [6] (setting [12]) it was 50 nM. Besides, the concentration for half-maximal inhibition (IC50) in assay [7] (setting [12]) is 21 nM; in [8] (setting [12]), 23 nM; in assay [9] (setting [12]) it was 8 nM; in the assay with melanoma cells (A2058) (setting [12]), 20 nM; in assay [10] (setting [12]), 11 nM.

Regarding `CC[C@@]1(O)C(=O)OCc2c1cc1n(c2=O)Cc2c-1nc1cc(F)c(C)c(-c3ccco3)c1c2CN` [Compound 6o], the IC50 in [1] (setting [12]) worked out at 14 nM; in [2] (setting [12]), 26 nM; in assay [3] (setting [12]), 5 nM; in [4] (setting [12]) it was 8 nM; in [5] (setting [12]) it was 9 nM; in assay [7] (setting [12]), 35 nM. For the same compound, the half-inhibitory concentration (IC50) in assay [8] (setting [12]) was 4 nM; in [9] (setting [12]), 3 nM; in the assay on melanoma cells (A2058) (setting [12]), 4 nM; in assay [10] (setting [12]), 2 nM.

Consider `CC[C@@]1(O)C(=O)OCc2c1cc1n(c2=O)Cc2c-1nc1cc(F)c(C)c(C3=CCSCC3)c1c2CN` [Compound 6m], for which the IC50 is 7 nM in assay [1] (setting [12]); 35 nM in assay [2] (setting [12]); 8 nM in assay [3] (setting [12]); 12 nM in assay [4] (setting [12]); 22 nM in assay [5] (setting [12]); 38 nM in [7] (setting [12]). The IC50 came to 5 nM in [8] (setting [12]), 6 nM in assay [9] (setting [12]), 7 nM with melanoma cells (A2058) (setting [12]) and 2 nM in [10] (setting [12]).

As to `CC[C@@]1(O)C(=O)OCc2c1cc1n(c2=O)Cc2c-1nc1cc(F)c(C)c(Cl)c1c2CNC(=O)CN` [Compound 13a], the half-maximal inhibitory concentration (IC50) is 2 nM in assay [1]; 5 nM in assay [11]; 1 nM in assay [3]; 1 nM in [4]; 44 nM in assay [5] (96 h); 6 nM in assay [6]. Moreover, the concentration for half-maximal inhibition (IC50) in assay [7] came out at 5 nM; in assay [8], 1 nM; in assay [9], 1 nM; in assay [10] it was 0.3 nM.

As for `CC[C@@]1(O)C(=O)OCc2c1cc1n(c2=O)Cc2c-1nc1cc(F)c(OC)c(Br)c1c2CN` [Compound 2ad], the IC50 worked out at 5 nM in assay [1] (setting [12]); 22 nM in assay [11] (setting [12]); 4 nM in assay [3] (setting [12]); 7 nM in [4] (setting [12]); 17 nM in assay [5] (setting [12]); 9 nM in [6] (setting [12]). Besides, the IC50 in assay [7] (setting [12]) stood at 15 nM; in [8] (setting [12]), 4 nM; in assay [9] (setting [12]), 1 nM; in [10] (setting [12]), 1 nM.

With `CC[C@@]1(O)C(=O)OCc2c1cc1n(c2=O)Cc2c-1nc1cc(F)c(C)c3c1c2[C@@H](NC(=O)CN)CC3` [Compound 13b], the IC50 was determined as 23 nM in [1] (setting [12]); 21 nM in assay [11] (setting [12]); 6 nM in [3] (setting [12]); 11 nM in assay [4] (setting [12]); 58 nM in assay [5] (setting [12]); 27 nM in assay [6] (setting [12]). The IC50 was 30 nM in assay [7] (setting [12]), 2 nM in assay [8] (setting [12]), 4 nM in assay [9] (setting [12]) and 1 nM in assay [10] (setting [12]).

Regarding `CC[C@@]1(O)C(=O)OCc2c1cc1n(c2=O)Cc2c-1nc1cc3c(cc1c2CNCCCNC)OCO3` [Compound 8a], the half-inhibitory concentration (IC50) in assay [1] was determined as 3 nM; in assay [11], 15 nM; in assay [3], 5 nM; in assay [4] it was 8 nM; in assay [5] (96 h), 48 nM; in assay [6], 11 nM. In addition, the half-inhibitory concentration (IC50) in assay [7] stood at 22 nM; in [8], 4 nM; in assay [9], 2 nM; in assay [10], 1 nM.

As to `C/C=C/c1c(C)c(F)cc2nc3c(c(CN)c12)Cn1c-3cc2c(c1=O)COC(=O)[C@]2(O)CC` [Compound 2aj], the IC50 was determined as 1 nM in assay [1] (setting [12]); 3 nM in assay [11] (setting [12]); 1 nM in [3] (setting [12]); 2 nM in assay [4] (setting [12]); 5 nM in assay [5] (setting [12]); 2 nM in assay [6] (setting [12]). The IC50 amounted to 5 nM in [7] (setting [12]), 1 nM in [8] (setting [12]), 0.3 nM in assay [9] (setting [12]) and 0.3 nM in assay [10] (setting [12]).
